This is an account of results in US5696112A, “Fused heterocyclic azepines as vasopressin antagonists” (American Cyanamid Company, priority 1995, dated 1997).

Experiment [1] has as its target T1, Rat Hepatic V1 Receptors (vasopressin V1) (Rattus norvegicus, UniProt P30560).
T1 construct: Rat liver plasma membranes expressing the vasopressin V1 receptor subtypes are isolated by sucrose density gradient; from tissue; host or cells: rat liver plasma membranes
As to the kind of experiment: Binding Assay to Rat Hepatic V1 Receptors. The note with it: rat hepatic V1, [3H]vasopressin. The protocol:
Binding Assay to Rat Hepatic V1 Receptors
Rat liver plasma membranes expressing the vasopressin V1 receptor subtypes are isolated by sucrose density gradient according to the method described by Lesko et al., (1973). These membranes are quickly suspended in 50.0 mMTris.HCl buffer, pH 7.4, containing 0.2% bovine serum albumin (BSA) and 0.1 mM phenylmethylsulfonylfluoride (PMSF) and kept frozen at -70° C. until used in subsequent binding experiments. For binding experiments, the following is added to the wells of a ninety-six well format microtiter plate: 100 μl of 100.0 mM Tris.HCl buffer containing 10.0 mM MgCl2, 0.2% heat inactivated BSA and a mixture of protease inhibitors: leupeptin, 1.0 mg %; aprotinin, 1.0 mg %, 1,10-phenanthroline,2.0 mg %; trypsin inhibitor, 10.0 mg % and 0.1 mM PMSF, 20.0 μl of [phenylalanyl-3,4,5-^3 H]vasopressin (S.A. 45.1 Ci/mmole) at 0.8 nM, and the reaction initiated by the addition of 80 μl of tissue membranes containing 20 μg of tissue protein. The plates are kept undisturbed on the bench top at room temperature for 120 min. to reach equilibrium. Nonspecific samples are assayed in the presence of 0.1 μM of the unlabeled antagonist phenylalanylvasopressin, added in 20.0 μl volume to a final incubation volume of 200 μl. Upon completion of binding, the content of each well is filtered off, using a Brandel® cell Harvester (Gaithersburg, Md.). The radioactivity trapped on the filter disk by the ligand-receptor complex is assessed by liquid scintillation counting in a Packard LS Counter, with an efficiency of 65% for tritium. The data are analyzed for IC50 values by the LUNDON-2 program for competition (LUNDON SOFTWARE, OH).

In experiment [2] the target is T2, Rat Kidney Medullary V2 Receptors (vasopressin V2) (Rattus norvegicus, UniProt Q00788).
T2 construct: Medullary tissues from rat kidneys are dissected out; from tissue; host or cells: rat kidney medulla membranes
T2 sequence (Q00788 whole entry): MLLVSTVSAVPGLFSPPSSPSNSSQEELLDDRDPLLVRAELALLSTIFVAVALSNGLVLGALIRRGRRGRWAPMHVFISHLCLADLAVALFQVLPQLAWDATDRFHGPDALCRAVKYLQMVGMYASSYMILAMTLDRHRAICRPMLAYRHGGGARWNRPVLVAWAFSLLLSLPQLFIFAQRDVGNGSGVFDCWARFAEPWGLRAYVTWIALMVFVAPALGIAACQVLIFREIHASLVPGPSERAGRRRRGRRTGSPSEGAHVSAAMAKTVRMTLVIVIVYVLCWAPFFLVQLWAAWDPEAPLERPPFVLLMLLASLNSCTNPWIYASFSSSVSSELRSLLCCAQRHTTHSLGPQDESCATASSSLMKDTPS
As to the kind of experiment: Binding Assay to Rat Kidney Medullary V2 Receptors. The note with it: rat kidney medullary V2, [3H]Arg8-vasopressin. The protocol: Binding Assay to Rat Kidney Medullary V2 Receptors
Medullary tissues from rat kidneys are dissected out, cut into small pieces and let soak in a […] sodium chloride solution containing 1.0 mM EDTA with many changes of the liquid phase, until the solution is clear of blood. The tissue is homogenized in a 0.25M sucrose solution containing 1.0 mM EDTA and 0.1 mM PMSF using a Potter-Elvehjem homogenizer with a teflon pestle. The homogenate is filtered through several layers (4 layers) of cheese cloth. The filtrate is rehomogenized using a dounce homogenizer, with a tight fitting pestle. The final homogenate is contrifuged at 1500×g for 15 min. The nuclear pellet is discarded and the supernatant fluid recentrifuged at 40,000×g for 30 min. The resulting pellet formed contains a dark inner part with the exterior, slightly pink. The pink outer part is suspended in a small amount of 50.0 mMTris.HCl buffer, pH 7.4. The protein content is determined by the Lowry's method (Lowry et al, J. Biol. Chem., 1953). The membrane suspension is stored at -70° C., in 50.0 mMTris.HCl, containing 0.2% inactivated BSA and 0.1 mM PMSF in aliquots of 1.0 ml containing 10.0 mg protein per ml of suspension until use in subsequent binding experiments.
For binding experiments, the following is added in μl volume to wells of a 96 well format of a microtiter plate: 100.0 μl of 100.0 mM Tris.HCl buffer containing 0.2% heat inactivated BSA, 10.0 mM MgCl2 and a mixture of protease inhibitors: leupeptin, 1.0 mg %; aprotinin, 1.0 mg %; 1,10-phenanthroline, 2.0 mg %; trypsin inhibitor, 10.0 mg % and 0.1 mM PMSF, 20.0 μl of [^3 H]Arginine^8, vasopressin (S.A. 75.0 Ci/mmole) at 0.8 nM and the reaction initiated by the addition of 80.0 μl of tissue membranes (200.0 μg tissue protein). The plates are left undisturbed on the bench top for 120 min. to reach equilibrium. Non-specific binding is assessed in the presence of 1.0 μM of unlabeled ligand, added in 20 μl volume. For test compounds, these are solubilized in 50% dimethylsulfoxide (DMSO) and added in 20.0 μl volume to a final incubation volume of 200 μl. Upon completion of binding, the content of each well is filtered off, using a Brandel® cell Harvester (Gaithersburg, Md.). The radioactivity trapped on the filter disk by the ligand-receptor complex is assessed by liquid scintillation counting in a Packard LS Counter, with an efficiency of 65% for tritium. The data are analyzed for IC50 values by the LUNDON-2 program for competition (LUNDON SOFTWARE, OH).

A further experiment relates to Vasopressin V2. The experiment is described as follows: Vasopressin V2 Antagonist Activity in Conscious Hydrated Rats. Format: in vivo, rat. Conditions: AVP 0.4 μg/kg i.p. The protocol:
Vasopressin V2 Antagonist Activity in conscious Hydrated Rats Conscious hydrated rats are treated with compounds under study from 0.1 to 100 mg/kg orally or vehicle. Two to four rats are used for each compound. One hour later, arginine vasopressin (AVP, antidiuretic hormone, ADH) dissolved in peanut oil is administered at 0.4 μg/kg intraperitoneally. Two rats in each test would not receive arginine vasopressin but only the vehicle (peanut oil) to serve as water-loading control. Twenty minutes later each rat is given 30 mL/kg of deionized water orally by gavage and is placed individually in a metabolic cage equipped with a funnel and a graduated glass cylinder to collect urine for four hours. Urine volume is measured and osmolality analyzed by use of a Fiske One-Ten osmometer (Fiske Assoc., Norwood, Mass. USA). Urinary sodium, potassium, and chloride are analyzed by use of ion-specific electrodes in a Beckman E3 (Electrolyte 3) Analyzer. In the following results, […] and […] osmolality relative to AVP-control indicates activity.

The target in a further experiment is T3, oxytocin receptors (Rattus norvegicus, UniProt P70536).
T3 construct: The uteri are dissected out, cleaned of fat and connective tissues; from tissue; host or cells: uterus membranes of DES-treated female Sprague-Dawley rats
T3 sequence (P70536 1-388): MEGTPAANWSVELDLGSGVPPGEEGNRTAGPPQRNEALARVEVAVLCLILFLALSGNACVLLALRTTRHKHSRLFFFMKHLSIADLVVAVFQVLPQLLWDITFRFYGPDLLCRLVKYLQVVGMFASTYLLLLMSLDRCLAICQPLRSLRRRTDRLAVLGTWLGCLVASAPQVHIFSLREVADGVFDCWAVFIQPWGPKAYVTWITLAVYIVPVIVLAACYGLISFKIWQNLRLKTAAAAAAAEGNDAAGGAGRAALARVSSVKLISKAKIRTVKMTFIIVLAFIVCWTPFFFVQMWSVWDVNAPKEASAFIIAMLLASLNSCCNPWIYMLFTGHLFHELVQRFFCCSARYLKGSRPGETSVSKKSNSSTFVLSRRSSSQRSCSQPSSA
The experiment is described as follows: Oxytocin Receptor Binding. More on the design: species or system Sprague-Dawley rats. The protocol:
Oxytocin Receptor Binding
Female Sprague-Dawley rats weighing approximately 200-250 g are injected intramuscularly (i.m.) with 0.3 mg/kg of body weight of diethylstilbestrol (DES). The rats are sacrificed 18 hours later under pentobarbital anesthesia. The uteri are dissected out, cleaned of fat and connective tissues and rinsed in 50 ml of normal saline. The tissue pooled from six rats is homogenized in 50 ml of 0.01 mMTris.HCl, containing 0.5 mM dithiothreitol and 1.0 mM EDTA, adjusted to pH 7.4, using a polytron at setting 6 with three passes of 10 sec each. The homogenate is passed through two (2) layers of cheesecloth and the filtrate centrifuged at 1000×g for 10 min. The clear supernatant is removed and recentrifuged at 165,000×g for 30 min. The resulting pellet containing the oxytocin receptors is resuspended in 50.0 mM Tris.HCl containing 5.0 mM MgCl2 at pH 7.4, to give a protein concentration of 2.5 mg/ml of tissue suspension. This preparation is used in subsequent binding assays with [^3 H]Oxytocin.
Binding of 3,5-[^3 H]Oxytocin ([^3 H]OT) to its receptors is done in microtiter plates using [^3 H]OT, at various concentrations, in an assay buffer of 50.0 mM Tris.HCl, pH 7.4 and containing 5.0 mM MgCl2, and a mixture of protease inhibitors: BSA, 0.1 mg; aprotinin, 1.0 mg; 1,10-phenanthroline, 2.0 mg; […], 10.0 mg; and PMSF, 0.3 mg per 100 ml of buffer solution. Nonspecific binding is determined in the presence of 1.0 uM unlabeled OT. The binding reaction is terminated after 60 min., at 22° C., by rapid filtration through glass fiber filters using a Brandel® cell harvester (Biomedical Research and Development Laboratories, Inc., Gaithersburg, Md.). Competition experiments are conducted at equilibrium using 1.0 nM [^3 H]OT and varying the concentration of the displacing agents. The concentrations of agent displacing 50% of [^3 H]OT at its sites (IC50) are calculated by a computer assisted LUNDON-2 program (LUNDON SOFTWARE INC., Ohio, USA).

T1 sequence (P30560 whole entry): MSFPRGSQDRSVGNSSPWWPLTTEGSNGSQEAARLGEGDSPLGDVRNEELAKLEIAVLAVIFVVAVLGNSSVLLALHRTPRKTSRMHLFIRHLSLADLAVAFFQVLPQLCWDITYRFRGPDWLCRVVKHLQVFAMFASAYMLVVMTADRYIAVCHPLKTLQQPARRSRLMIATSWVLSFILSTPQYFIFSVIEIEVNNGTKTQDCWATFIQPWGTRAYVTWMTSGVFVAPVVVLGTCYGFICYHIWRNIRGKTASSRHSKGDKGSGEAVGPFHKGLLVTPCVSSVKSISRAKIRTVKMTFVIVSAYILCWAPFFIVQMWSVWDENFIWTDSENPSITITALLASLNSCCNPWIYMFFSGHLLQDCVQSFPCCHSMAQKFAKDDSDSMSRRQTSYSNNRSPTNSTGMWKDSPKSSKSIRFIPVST

Take `O=C(Nc1ccc(C(=O)N2CCCCc3sccc32)cc1)c1ccc(Cl)c(Cl)c1` [Example 1, N-[4-[(5,6,7,8-Tetrahydro-4H-thieno[3,2-b]azepin-4-yl)carbonyl]phenyl]-3,4-dichlorobenzamide]: the concentration for half-maximal inhibition (IC50) in experiment [1] was 1.65 µM; in experiment [2], 0.44 µM.
In the case of `Cc1ccccc1C(=O)Nc1ccc(C(=O)N2CCCCc3sccc32)cc1` [Example 3, N-[4-[(5,6,7,8-Tetrahydro-4H-thieno[3,2-b]azepin-4-yl)carbonyl]phenyl]-2-methylbenzamide], in the experiment on Vasopressin V2 (100 mg/kg P.O.), the Osmolality worked out at 1081 mOsm/kg and the “Urine Volume” value is on record as 10 ml/4 hours. This compound also returned an IC50 in experiment [1] of 0.077 µM. Moreover, the IC50 in experiment [2] was 0.023 µM.
With `O=C(Nc1ccc(C(=O)N2CCCCc3sccc32)cc1)c1ccco1` [Example 4, N-[4-[(5,6,7,8-Tetrahydro-4H-thieno[3,2-b]azepin-4-yl)carbonyl]phenyl]2-furanecarboxamide], the IC50 came to 0.4 µM in experiment [1] and 1.8 µM in experiment [2].
In experiment [2], `CC(C)(C)c1ccc(C(=O)Nc2ccc(C(=O)N3CCCCc4sccc43)cc2)cc1` [Example 5, N-[4-[(5,6,7,8-Tetrahydro-4H-thieno[3,2-b]azepin-4-yl)carbonyl]phenyl]4-tert-butylbenzamide] showed an IC50 of 21.4 µM. This counts as double-digit micromolar.
Regarding `CCCCc1ccc(C(=O)Nc2ccc(C(=O)N3CCCCc4sccc43)cc2)cc1` [Example 6, N-[4-[(5,6,7,8-Tetrahydro-4H-thieno[3,2-b]azepin-4-yl)carbonyl]phenyl]4-(n-butyl)benzamide], the values for the concentration for half-maximal inhibition (IC50) in experiment [1] and in experiment [2] were 50 µM and 3.4 µM, respectively.
Regarding `Cc1ccsc1C(=O)Nc1ccc(C(=O)N2CCCCc3sccc32)cc1` [Example 7, N-[4-[(5,6,7,8-Tetrahydro-4H-thieno[3,2-b]azepin-4-yl)carbonyl]phenyl]3-methyl-2-thiophenecarboxamide], in the experiment on Vasopressin V2 (100 mg/kg P.O.), the “Urine Volume” value is 6.2 ml/4 hours. The results for the IC50 in experiment [1] and in experiment [2] were 0.059 µM and 0.138 µM, respectively.
`Cc1ccc(C)c(C(=O)Nc2ccc(C(=O)N3CCCCc4sccc43)cc2)c1` [Example 8, N-[4-[(5,6,7,8-Tetrahydro-4H-thieno[3,2-b]azepin-4-yl)carbonyl]phenyl]2,5-dimethylbenzamide]: the half-maximal inhibitory concentration (IC50) is 0.2 µM in experiment [1] and 0.12 µM in experiment [2].
Take `Cc1cccc(C(=O)Nc2ccc(C(=O)N3CCCCc4sccc43)cc2)c1C` [Example 10, N-[4-[(5,6,7,8-Tetrahydro-4H-thieno[3,2-b]azepin-4-yl)carbonyl]phenyl]2,3-dimethylbenzamide]: the figures for the IC50 in experiment [1] and in experiment [2] were 0.23 µM and 0.052 µM, respectively.
As for `Cc1ccc(C(=O)Nc2ccc(C(=O)N3CCCCc4sccc43)cc2)c(C)c1` [Example 11, N-[4-[(5,6,7,8-Tetrahydro-4H-thieno[3,2-b]azepin-4-yl)carbonyl]phenyl]2,4-dimethylbenzamide], in the experiment on Vasopressin V2 (30 mg/kg P.O.), the Osmolality is recorded as 1420 mOsm/kg and the “Urine Volume” value is on record as 5 ml/4 hours. The compound also came in with an IC50 in experiment [1] of 0.28 µM. In addition, the concentration for half-maximal inhibition (IC50) in experiment [2] was 0.06 µM.
Regarding `O=C(Cc1ccccc1)Nc1ccc(C(=O)N2CCCCc3sccc32)cc1` [Example 12, N-[4-[(5,6,7,8-tetrahydro-4H-thieno[3,2-b]azepin-4-yl)carbonyl]phenyl]benzeneacetamide], the IC50 in experiment [1] amounted to 0.26 µM; in experiment [2], 0.036 µM.
For the compound `O=C(Nc1ccc(C(=O)N2CCCCc3sccc32)cc1)c1coc2c1C(=O)CCC2` [Example 179], the IC50 in experiment [1] turned out to be 1.3 µM; in experiment [2], 5.5 µM.
For `O=C(Nc1ccc(C(=O)N2CCCCc3sccc32)cc1)c1ccc2[nH]ccc2c1` [Example 180], in that order: 8 µM and 0.37 µM.
As to `CCCCOc1ccc(C(=O)N2CCCCc3sccc32)cc1` [Example 233, 4-[4-(n-Butyloxy)benzoyl]-5,6,7,8-tetrahydro-4H-thieno[3,2-b]azepine], the IC50 at oxytocin receptors (1.0 nM [3H]oxytocin) was 0.95 µM. The compound further showed an inhibition at 10 µM at oxytocin receptors (10 μM) of 93%.

One may read the IC50 as the concentration needed to halve the response being measured. Lower therefore signals greater potency in that assay. As usually defined, the inhibition is how much of the control response was suppressed. A low value points to a response near the control.
